# From ChEMBL document CHEMBL6092220 (J Med Chem, 2024)
# Calls of active or inactive are those of the source. No cut-off for these calls is given here.
# Columns and labels:
# [1] = target: T1, Protein cereblon/Signal transducer and activator of transcription 3 (Homo sapiens, UniProt P40763+Q96SW2); test: PROTAC activity at his-SUMO-tagged STAT3 (127 to 688 residues)/CRBN in human MOLM16 cells assessed as reduction in STAT3 level at 10 uM incubated for 4 hrs by multiplexed quantitative proteomics analysis relative to control; format: cell-based; parameters: scale not given: the % may be the effect or the level left
# [2] = Drug concentration in female CB17 SCID mouse tumor at 5 mg/kg, iv measured at 24 hrs by LC-MS/MS analysis; format: ADME, organism-based, Neoplasm; conditions: read-out: Ct
# [3] = Clearance in ICR mouse assessed as hepatic blood flow at 5 mg/kg, iv; format: ADME, organism-based; conditions: in vivo
# [4] = Drug concentration in female CB17 SCID mouse tumor at 5 mg/kg, iv measured at 3 hrs by LC-MS/MS analysis; format: ADME, organism-based, Neoplasm; conditions: read-out: Ct
# [5] = target: T1, Protein cereblon/Signal transducer and activator of transcription 3; test: PROTAC activity at STAT3/CRBN in human Pfeiffer cells transfected with STAT3 K658R mutant assessed as reduction in STAT3 level at 64 nM incubated for 20 hrs by Western blot analysis; format: cell-based; parameters: scale not given: the % may be the effect or the level left
# [6] = target: T1, Protein cereblon/Signal transducer and activator of transcription 3; test: PROTAC activity at his-SUMO-tagged STAT3 (127 to 688 residues)/CRBN in human SU-DHL-1 cells assessed as reduction in STAT3 level incubated for 20 hrs by Western blot analysis; format: cell-based
# [7] = Drug concentration in female CB17 SCID mouse tumor at 5 mg/kg, iv measured at 6 hrs by LC-MS/MS analysis; format: ADME, organism-based, Neoplasm; conditions: read-out: Ct
# [8] = target: Protein cereblon/Signal transducer and activator of transcription 3 (Mus musculus) (UniProt P42227+Q8C7D2); test: In-vivo PROTAC activity at STAT3/CRBN in female CB17 SCID mouse assessed as reduction STAT3 level liver at 10 mg/kg, iv measured at 72 hrs by Western blot analysis; format: functional, organism-based; parameters: scale not given: the % may be the effect or the level left
# [9] = Stability in dog plasma assessed as parent compound remaining at […]; format: ADME, cell-free, Canis lupus familiaris; conditions: read-out: Stability
# [10] = Half life in Sprague-Dawley rat at 5 mg/kg, iv; format: ADME, organism-based; conditions: in vivo
# [11] = Drug concentration in female CB17 SCID mouse spleen at 5 mg/kg, iv measured at 6 hrs by LC-MS/MS analysis; format: ADME, organism-based; conditions: read-out: Ct
# [12] = Stability in human plasma assessed as parent compound remaining at […]; format: ADME, cell-free; conditions: read-out: Stability
# [13] = Drug concentration in female CB17 SCID mouse plasma at 5 mg/kg, iv measured at 1 hr by LC-MS/MS analysis; format: ADME, organism-based
# [14] = target: Signal transducer and activator of transcription 4 (Homo sapiens) (UniProt Q14765); test: Binding affinity to STAT4 (unknown origin) assessed as maximum inhibition by FP assay relative to control
# [15] = target: T1, Protein cereblon/Signal transducer and activator of transcription 3; test: PROTAC activity at STAT3/CRBN in human MOLM16 cells assessed as reduction in STAT3 level at 340 nM incubated for 4 hrs by Western blot analysis; format: cell-based; parameters: scale not given: the % may be the effect or the level left
# [16] = target: Signal transducer and activator of transcription 3 (Homo sapiens, UniProt P40763); test: Binding affinity to STAT3 (unknown origin) by FP assay
# [17] = target: Signal transducer and activator of transcription 1-alpha/beta (Homo sapiens, UniProt P42224); test: Binding affinity to STAT1 (unknown origin) by FP assay
# [18] = Half life in Beagle dog at 1 mg/kg, iv; format: ADME, organism-based, Canis lupus familiaris; conditions: in vivo
# [19] = target: Protein cereblon/Signal transducer and activator of transcription 6 (Homo sapiens) (UniProt P42226+Q96SW2); test: PROTAC activity at STAT6/CRBN in human Pfeiffer cells transfected with STAT3 K658R mutant assessed as reduction in STAT6 level upto 40 uM incubated for 20 hrs by Western blot analysis; format: cell-based
# [20] = Antitumor activity against human MOLM16 cells xenografted in mouse assessed as tumor regression at 25 mg/kg, iv; format: functional, MOLM-16
# [21] = target: T1, Protein cereblon/Signal transducer and activator of transcription 3; test: PROTAC activity at his-SUMO-tagged STAT3 (127 to 688 residues)/CRBN in human PBMC cells assessed as reduction in STAT3 level upto 40 uM incubated for 20 hrs by Western blot analysis relative to control; format: cell-based; parameters: scale not given: the % may be the effect or the level left
# [22] = Stability in human plasma assessed as half life; format: ADME, cell-free
# SU-DHL-1 = test: PROTAC activity at STAT5/CRBN in human SU-DHL-1 cells assessed as reduction in STAT5 level upto 40 uM incubated for 20 hrs by Western blot analysis; format: cell-based
# [23] = target: T2, Protein cereblon/Signal transducer and activator of transcription 2 (Homo sapiens) (UniProt Q96SW2+P52630); test: PROTAC activity at STAT2/CRBN in human PBMC cells assessed as reduction in STAT2 level upto 40 uM incubated for 20 hrs by Western blot analysis; format: cell-based
# [24] = target: Protein cereblon/Signal transducer and activator of transcription 3 (Homo sapiens, UniProt P40763+Q96SW2, K658R); test: (§1) PROTAC activity at STAT3/CRBN in human Pfeiffer cells transfected with STAT3 K658R mutant assessed as reduction in STAT3 level incubated for 20 hrs by Western blot analysis; format: cell-based
# [25] = target: T1, Protein cereblon/Signal transducer and activator of transcription 3; test: as §1; format: cell-based; conditions: dose <= 40.0 µM
# [26] = Apparent permeability across basolateral to apical side in human Caco-2 cells; format: ADME, cell-based
# [27] = Half life in ICR mouse at 5 mg/kg, iv; format: ADME, organism-based; conditions: in vivo
# [28] = target: T1, Protein cereblon/Signal transducer and activator of transcription 3; test: PROTAC activity at STAT3/CRBN in human MOLM16 cells assessed as reduction in STAT3 level at 64 nM incubated for 4 hrs by Western blot analysis; format: cell-based
# [29] = Drug concentration in female CB17 SCID mouse plasma at 5 mg/kg, iv measured at 3 hrs by LC-MS/MS analysis; format: ADME, organism-based
# [30] = Cmax in Beagle dog at 1 mg/kg, iv; format: ADME, organism-based, Canis lupus familiaris; conditions: in vivo
# [31] = Drug concentration in female CB17 SCID mouse liver at 5 mg/kg, iv measured at 1 hr by LC-MS/MS analysis; format: ADME, organism-based; conditions: read-out: Ct
# [32] = target: Signal transducer and activator of transcription 1-alpha/beta (Homo sapiens) (UniProt P42224); test: Binding affinity to STAT1 (unknown origin) assessed as maximum inhibition by FP assay relative to control
# Cytochrome P450 2B6 = Cytochrome P450 2B6 (Homo sapiens, UniProt P20813); test: Inhibition of CYP2B6 (unknown origin); format: ADME
# [33] = Drug concentration in female CB17 SCID mouse plasma at 5 mg/kg, iv measured at 6 hrs by LC-MS/MS analysis; format: ADME, organism-based
# [34] = target: T2, Protein cereblon/Signal transducer and activator of transcription 2 (Homo sapiens); test: PROTAC activity at STAT2/CRBN in human SU-DHL-1 cells assessed as reduction in STAT2 level upto 40 uM incubated for 20 hrs by Western blot analysis; format: cell-based
# [35] = Drug concentration in female CB17 SCID mouse tumor at 5 mg/kg, iv measured at 72 hrs by LC-MS/MS analysis; format: ADME, organism-based, Neoplasm; conditions: read-out: Ct
# [36] = Toxicity in iv dosed mouse assessed as weight gain; format: organism-based; conditions: in vivo, dose 5-20 mg/kg
# Cytochrome P450 3A4 = Cytochrome P450 3A4 (Homo sapiens, UniProt P08684); test: Inhibition of CYP3A4 (unknown origin) using midazolam as substrate; format: ADME
compound,measurement,setting,value
COC(=O)N1CC[C@H]2CC[C@@H](C(=O)N[C@@H](CCC(N)=O)C(=O)N[C@@H](Cc3ccc(F)c(F)c3)C(=O)N3CCC(CCC#Cc4cccc5c4CN(C4CCC(=O)NC4=O)C5=O)CC3)N2C(=O)[C@@H](NC(=O)c2cc3cc(C(F)(F)P(=O)(O)O)ccc3s2)C1 (some centres undefined),Activity,[1],85%
same,concentration at 24 h,[2],1800 ng/g
same,QH,[3],0.1%
same,concentration at 3 h,[4],2830 ng/g
same,Activity,[5],> 90%
same,DC50,[6],0.01 µM
same,concentration at 6 h,[7],3150 ng/g
same,Activity,[8],> 90%
same,remaining at 2 h,[9],89%
same,half-life,[10],1 h
same,concentration at 6 h,[11],1950 ng/g
same,remaining at 2 h,[12],75%
same,concentration at 1 h,[13],47300 ng/mL
same,Imax,[14],100%
same,Activity,[15],100%
same,IC50,[16],0.019 µM
same,IC50,[17],0.27 µM
same,half-life,[18],2.3 h
same,Activity,[19],inactive
same,Activity,[20],100%
same,Activity,[21],> 95%
same,t1/2,[22],> 2 h
same,Activity,SU-DHL-1,inactive
same,Activity,[23],inactive
same,DC50,[24],0.0025 µM
same,Activity,[25],Dose-dependent-effect
same,Papp,[26],0.13 10^-6 cm/s
same,half-life,[27],22.1 h
same,Activity,[28],Active
same,concentration at 3 h,[29],31200 ng/mL
same,Cmax,[30],8860 ng/mL
same,concentration at 1 h,[31],5850 ng/g
same,Imax,[32],100%
same,IC50,Cytochrome P450 2B6,> 10 µM
same,concentration at 6 h,[33],30300 ng/mL
same,Activity,[34],inactive
same,concentration at 72 h,[35],925 ng/g
same,Activity,[36],Non-toxic
same,IC50,Cytochrome P450 3A4,> 10 µM
